Measured values reported in patent USRE30548E, “Peptides which effect release of hormones” (The Salk Institute for Biological Studies, priority 1979, dated 1981).
Bridge positions count the residues as written; N and C are the ends. Ends that are not written are not given here.

Assays:
insulin secretion = experiment: In vivo bioassay: inhibition of insulin release in anesthetized rats (portal vein plasma); design: species or system Sprague-Dawley-CD rats; conditions: in vivo rat, via external jugular vein; somatostatin = 100
Description: (§1) An investigation of the effect of somatostatin, dihydrosomatostatin, (as controls) and the peptides of the invention to inhibit the release of glucagon and insulin was made as follows:
(§2) In vivo Bioassay: Male Sprague-Dawley-CD rats weighing 180-200 g housed in temperature and humidity controlled quarters with 14h light and 10h dark (light 0700-[…]) were used in all experiments. Animals were fed a standard ration and tap water ad libitum. Experiments were carried out at least 5 days after arrival of rats from the supplier between the hours 1400 to 1600. After ether anesthesia, peptides or saline were administered in a volume of 0.2 ml. via the external jugular vein. Animals remained anesthetized until the time of blood collection from the portal vein. […]
(§3) Plasma was stored at -20° C. for insulin and glucagon determinations. Insulin levels were determined by the method of Herbert et al, J. […]. Endocr. […] Glucagon was determined by the method of Faloona and Unger, in Jaffe et al ed., Methods of Hormone Radioimmunoassay, Academic Press, New York, 1974, p. […] was determined by the glucose oxidase method, utilizing a Beckman Glucose Analyzer.
(§4) All experiments were carried on in a randomized block design. Following analysis of variance difference between treatments were determined by the multiple range tests of Dunnett and Duncan. Potency values were calculated from four or six point bioassays.

glucagon secretion = experiment: In vivo bioassay: inhibition of glucagon release in anesthetized rats (portal vein plasma); design: species or system Sprague-Dawley-CD rats; conditions: in vivo rat, via external jugular vein; somatostatin = 100
Description: as §1, §2, §3, §4

With “somatostatin (AGCKNFFWKTFTSC; disulfide 3-14; ends not checked; UniProt P61278 103-116, looked up)” the “percent effectiveness for inhibiting secretion of Insulin, somatostatin taken as the base” value (insulin secretion) was 100% and the “percent effectiveness for inhibiting secretion of Glucagon, somatostatin taken as the base” value (glucagon secretion) was 100%.
